These results are taken from ChEMBL document CHEMBL3392926, “Antiprotozoal Activity Profiling of Approved Drugs: A Starting Point toward Drug Repositioning”.

The nature of test [1]: cells. It is filed as functional, cell-based. The note with it: Rattus norvegicus, L6, 72 h.
Description: DNDI: Cytotoxicity in Vitro, 72 hour, in rat skeletal myoblast cells
The subject of test [2] is Leishmania donovani. As to the kind of experiment: microbe, parasite or virus in culture. The class given is functional, organism-based, MHOM/ET/67/L82. The note with it: Leishmania donovani, MHOM/ET/67/L82, 96 h.
Description: DNDI: Leish (macro) in Vitro, 96 hour
A short description of test [3]: cells. The class given is functional, cell-based. The note with it: Mus musculus, NMRI, BalbC or CD1 mice, Macrophage, 96 h.
Description: DNDI: Cytotoxicity in Vitro, 96 hour, in mouse macrophages (infected-amastigotes)
In test [4] the test system is Plasmodium falciparum. The test is described as follows: microbe, parasite or virus in culture. The note with it: Plasmodium falciparum, K1, 72 h. It is filed as functional, organism-based, K1.
Description: DNDI: Malaria in Vitro, 72 hour
In test [5] the test system is Leishmania donovani. As to the kind of experiment: microbe, parasite or virus in culture. The class given is functional, organism-based, MHOM/ET/67/L82. The note with it: Leishmania donovani, MHOM/ET/67/L82, 72 h.
Description: DNDI: Leish (axenic) in Vitro, 72 hour
In test [6] the test system is Trypanosoma brucei rhodesiense. As to the kind of experiment: microbe, parasite or virus in culture. The note with it: Trypanosoma brucei, STIB 900, 72 h. The class given is functional, organism-based, STIB 900.
Description: DNDI: HAT in Vitro, 72 hour
The subject of test [7] is Trypanosoma cruzi. The test is described as follows: microbe, parasite or virus in culture. The class given is functional, organism-based, Tulahuen C4 (LacZ). The note with it: Trypanosoma cruzi, Tulahuen C4 (LacZ), 96 h.
Description: DNDI: Chagas in Vitro, 96 hour

Usually IC50 stands for the concentration that inhibits the measured activity by half. High values mean weaker potency, low ones greater potency.

On to `Nc1nc2c(ncn2COC(CO)CO)c(=O)[nH]1` [GANCICLOVIR], for which the IC50 in test [1] was 179 µM; in test [2], above 118 µM; in test [3], above 118 µM; in test [4], above 196 µM; in test [5], above 392 µM.

As for `CNCC[C@H](Oc1ccc(C(F)(F)F)cc1)c1ccccc1`, the IC50 was 15 µM in test [1] and 32.3 µM in test [3].

`Nc1nc(O)c2ncn(CCC(CO)CO)c2n1` [PENCICLOVIR]: the IC50 in test [1] is 220 µM; in test [2], above 118 µM; in test [6] it was above 395 µM; in test [3] it was above 118 µM; in test [5], above 395 µM.

As to `O=C1CN(/N=C/c2ccc([N+](=O)[O-])o2)C(=O)N1` [NITROFURANTOIN], the IC50 in test [1] was 90.3 µM; in test [2], above 41.8 µM; in test [6] it was 0.5 µM; in test [3], 125 µM; in test [7], 4.35 µM; in test [5] it was 2.12 µM.

With `C[C@H](N)C12CC3CC(CC(C3)C1)C2`, the IC50 in test [1] was 311 µM; in test [2], above 167 µM; in test [6], 13.8 µM; in test [3], above 167 µM; in test [4], 0.97 µM.

For the compound `CC(C)CN(C[C@@H](O)[C@H](Cc1ccccc1)NC(=O)O[C@H]1CO[C@H]2OCC[C@H]21)S(=O)(=O)c1ccc(N)cc1`, the IC50 is above 54.8 µM in test [2], 31.4 µM in test [6], 46.9 µM in test [4] and 92.2 µM in test [7].

Take `Cc1cn([C@H]2C[C@H](N=[N+]=[N-])[C@@H](CO)O2)c(=O)[nH]c1=O` [ZIDOVUDINE]: the IC50 was 207 µM in test [1], above 112 µM in test [2], above 112 µM in test [3] and above 374 µM in test [5].

On to `C[C@@H](Cc1cccc(C(F)(F)F)c1)NCCOC(=O)c1ccccc1`, for which the IC50 is 49.1 µM in test [1]; 54.4 µM in test [2]; 21.1 µM in test [6]; above 85.4 µM in test [3]; 6.52 µM in test [4]; 73.7 µM in test [7].

As to `CC(=O)OCC(CCn1cnc2cnc(N)nc21)COC(C)=O` [FAMCICLOVIR], the 50% inhibitory concentration (IC50) in test [1] was 180 µM; in test [2], above 93.4 µM; in test [3], above 93.4 µM; in test [4] it was above 156 µM; in test [5], above 311 µM.

For `CCn1cc(C(=O)O)c(=O)c2cc(F)c(N3CCNCC3)nc21` [ENOXACIN], the IC50 in test [1] is 25 µM; in test [2] it was above 93.7 µM; in test [3] it was above 93.7 µM; in test [4], 76.8 µM; in test [5], above 312 µM.

For the compound `OCCN1CCN(CCCN2c3ccccc3Sc3ccc(C(F)(F)F)cc32)CC1` [FLUPHENAZINE], the IC50 in test [1] came out at 11.5 µM; in test [3] it was 22.9 µM.

With `CN/C(=N\CCSCc1nc[nH]c1C)NC#N` [CIMETIDINE], the IC50 in test [1] was 302 µM; in test [2], above 119 µM; in test [6], above 396 µM; in test [3] it was above 119 µM; in test [4] it was 29.2 µM; in test [5] it was above 396 µM.

Consider `O=C(O)c1nn(Cc2ccc(Cl)cc2Cl)c2ccccc12` [LONIDAMINE], for which the IC50 in test [1] is 273 µM; in test [2] it was above 93.4 µM; in test [3], above 93.4 µM; in test [4] it was above 15.6 µM; in test [5], 8.66 µM.

Take `Clc1ccc2c(c1)C(N1CCNCC1)=Nc1ccccc1O2` [AMOXAPINE]: the half-maximal inhibitory concentration (IC50) in test [1] is 16.2 µM; in test [3], 31.9 µM.

For `OC(Cn1cncn1)(Cn1cncn1)c1ccc(F)cc1F` [FLUCONAZOLE], the IC50 was above 294 µM in test [1], above 98 µM in test [2], above 98 µM in test [3] and 9.96 µM in test [7].

For `CN1CCC(=C2c3ccccc3CCc3sccc32)CC1` [PIZOTYLINE], the IC50 is 45 µM in test [1]; above 33.9 µM in test [2]; 3.99 µM in test [6]; above 102 µM in test [3]; 1.86 µM in test [4]; 30.6 µM in test [7].

Regarding `Cc1nc2ccccn2c(=O)c1CCN1CCC(C(=O)c2ccc(F)cc2)CC1` [PIRENPERONE], the IC50 in test [1] is 232 µM; in test [2], above 76.2 µM; in test [6] it was 30 µM; in test [3], above 76.2 µM; in test [4], 4.35 µM.

Consider `CCc1nc(N)nc(N)c1-c1ccc(Cl)cc1` [PYRIMETHAMINE], for which the concentration for half-maximal inhibition (IC50) in test [1] was 2.51 µM; in test [2], above 12.1 µM; in test [6] it was 6.75 µM; in test [3], above 12.1 µM; in test [7], 5.71 µM.

Regarding `Cc1ncc([N+](=O)[O-])n1CCO` [METRONIDAZOLE], the IC50 in test [1] is 339 µM; in test [2] it was above 175 µM; in test [3], above 175 µM.

As to `Cc1ncc([N+](=O)[O-])n1CC(O)CCl` (configuration not stated) [ORNIDAZOLE], the IC50 is above 408 µM in test [1]; above 136 µM in test [2]; 25.9 µM in test [6]; above 136 µM in test [3]; above 136 µM in test [5].

In the case of `CC(C)CN(C[C@@H](O)[C@H](Cc1ccccc1)NC(=O)O[C@H]1CCOC1)S(=O)(=O)c1ccc(N)cc1`, the IC50 was 160 µM in test [1]; above 59.3 µM in test [2]; 28.5 µM in test [6]; above 59.3 µM in test [3]; 15.2 µM in test [4].

In the case of `CCCSc1ccc2[nH]c(NC(=O)OC)nc2c1` [ALBENDAZOLE], the IC50 in test [1] is 0.41 µM; in test [2] it was above 3.77 µM; in test [6], 14.7 µM; in test [3], 11.3 µM; in test [7], 12.3 µM; in test [5], above 113 µM.

For `Nc1ccc(S(=O)(=O)c2ccc(N)cc2)cc1` [DAPSONE], the IC50 was 204 µM in test [1], above 121 µM in test [2], above 121 µM in test [3] and above 403 µM in test [5].

Turning to `Nc1nc(N)c2nc(-c3ccccc3)c(N)nc2n1`, the IC50 in test [1] is 8.53 µM; in test [2], above 11.8 µM; in test [6], 21.7 µM; in test [3], above 11.8 µM; in test [4], 17.2 µM; in test [7], 22.7 µM.

For `CCN(CC)CCOc1ccc(/C(=C(/Cl)c2ccccc2)c2ccccc2)cc1` [ENCLOMIPHENE], the IC50 in test [1] was determined as 13.1 µM; in test [3], 24.6 µM.

On to `CN(C)CCC=C1c2ccccc2CCc2ccccc21` [AMITRIPTYLINE], for which the IC50 in test [1] is 42.2 µM; in test [2], above 10.8 µM; in test [6], 3.03 µM; in test [3], 36.1 µM; in test [4], 1.16 µM; in test [7], 35.1 µM.

Consider `Cn1c([N+](=O)[O-])cnc1N1CCN(S(C)(=O)=O)C1=O` [SATRANIDAZOLE], for which the IC50 in test [1] is above 311 µM; in test [2], above 104 µM; in test [6], 18.7 µM; in test [3], above 104 µM; in test [7], 19.1 µM; in test [5], 10.4 µM.

As to `Cc1ncc([N+](=O)[O-])n1CC(C)O` (configuration not stated) [SECNIDAZOLE], the IC50 in test [1] is above 483 µM; in test [2], above 161 µM; in test [6] it was 28.7 µM; in test [3], above 161 µM; in test [7], above 161 µM; in test [5], above 161 µM.

Turning to `CN(C)CCCN1c2ccccc2CCc2ccc(Cl)cc21` [CLOMIPRAMINE], the IC50 is 19.8 µM in test [1] and 31.8 µM in test [3].

In the case of `CCN(CC)CCCC(C)Nc1ccnc2cc(Cl)ccc12` (configuration not stated) [CHLOROQUINE], the IC50 in test [1] is 50.6 µM; in test [2] it was above 58.9 µM; in test [6] it was 3.81 µM; in test [3] it was above 58.9 µM; in test [7] it was 99.2 µM; in test [5], above 196 µM.

On to `O=C(O)COCCN1CCN(C(c2ccccc2)c2ccc(Cl)cc2)CC1` (configuration not stated) [CETIRIZINE], for which the IC50 in test [1] was 149 µM; in test [2] it was above 70.5 µM; in test [6], 99.5 µM; in test [3], above 70.5 µM; in test [4] it was 20 µM.

Take `CSc1ccc2c(c1)N(CC[C@H]1CCCCN1C)c1ccccc1S2`: the IC50 in test [1] was above 243 µM; in test [3], above 81 µM.

For `Cc1cn([C@H]2C=C[C@@H](CO)O2)c(=O)[nH]c1=O` [STAVUDINE], the IC50 in test [1] is 266 µM; in test [2] it was above 134 µM; in test [3], above 134 µM; in test [5], above 446 µM.

`CC(=O)N1CCN(c2ccc(OCC3COC(Cn4ccnc4)(c4ccc(Cl)cc4Cl)O3)cc2)CC1` (configuration not stated) [KETOCONAZOLE]: the IC50 is 51 µM in test [1]; above 18.8 µM in test [2]; 33.1 µM in test [6]; 0.27 µM in test [7]; 38.8 µM in test [5].

With `CN1CCC(=C2c3ccccc3CC(=O)c3sccc32)CC1` [KETOTIFEN], the IC50 in test [1] is 147 µM; in test [2] it was above 97 µM; in test [6], 15.2 µM; in test [3] it was above 97 µM; in test [4], 0.75 µM; in test [5], above 291 µM.

Turning to `NC12CC3CC(CC(C3)C1)C2` [AMANTADINE], the IC50 in test [1] was 215 µM; in test [2] it was above 198 µM; in test [6], 52.8 µM; in test [3], above 198 µM; in test [4], 5.67 µM; in test [5], above 595 µM.

As to `NC(=O)c1cnccn1` [PYRAZINAMIDE], the IC50 is 458 µM in test [1]; above 244 µM in test [2]; above 812 µM in test [6]; above 244 µM in test [3]; above 812 µM in test [5].

As to `Cc1oncc1C(=O)Nc1ccc(C(F)(F)F)cc1` [LEFLUNOMIDE], the IC50 in test [1] is 124 µM; in test [2], above 111 µM; in test [3] it was above 111 µM; in test [4], above 18.5 µM; in test [5] it was 21.8 µM.
